Assay: Pharmacokinetic analysis in mice, plasma and brain levels by LC-MS/MS
Type: in vivo
Settings: male C57 BL/6 mice, 10 mg/kg oral (PO)
Procedure: Pharmacokinetic Analysis of the Compounds of the Invention
Animals: Male, C57 BL/6 mice (Jackson Labs, 25-30 g in body weight) are provided by Jackson Laboratories. Up to five mice are housed per cage and are maintained under a 12 hour light/dark cycle with access to food and water ad libitum. All procedures for the handling and use of animals follow the guidelines of the Institutional Animal Care and Use Committee (IACUC) of Columbia University, in accordance with NIH guidelines. Eight week-old mice (N=3/dose level or treatment group) are used in the experiments.
Experimental Treatment: Compounds: Selected Compounds of the Invention are evaluated in the present study. […]
Compound Preparation: Powdered stocks of the test compound(s) are measured and dissolved in 3% 1N HCl, 5% Labrasol and 92% of 5% TPGS in 0.05M Citrate buffer (CB, pH 4.0). […]
Treatment of Animals: Mice (N=3 mice/dose/time point) receive a 10 mg/kg oral (PO) dose of the test compound(s) at time 0. […] Plasma and brain tissue samples are processed and analyzed by the analytical group using LC-MS/MS methods, as described below. […]
Each tube is vortexed, then centrifuged for 20 min at 15000 rpm using a Tomy benchtop centrifuge at 4° C. Standard is an internal standard used for LC-MS/MS quantitation. […]
RESULTS: Plasma and Brain Analysis: All the test compound(s) tested could be detected and analyzed when spiked into control plasma. […]

- Kp (C57BL/6, mouse, brain/plasma, 0.25-2 h, read-out: B/P ratio (Brain AUC(0-2h)/Plasma AUC(0-2h))): ≤ 0.15
- oral bioavailability: display oral bioavailability
SMILES: Cc1nnc2n(C)c(=O)c3c(Nc4ccccc4)n(Cc4ccc(-c5cccc(F)n5)cc4)nc3n12 [Example 2, 2-(4-(6-Fluoro-pyridin-2-yl)-benzyl)-5,8-dimethyl-3-phenylamino-2H,5H-pyrazolo[4,3-e][1,2,4]triazolo[4,3-a]pyrimidin-4-one]

Source: US9938284B2, “Organic compounds” (INTRA-CELLULAR THERAPIES, INC., priority 2014, dated 2018)
